Measurements reported in US12485169B2, “Compounds” (GREY WOLF THERAPEUTICS LIMITED, priority 2018, dated 2025).
pIC50: −log10 of the molar value.

Each compound was assayed against T1, Purified ERAP1 (37-941)-10His (ERAP1) (Homo sapiens, UniProt Q9NZ08) (assay: ERAP1 mediated hydrolysis of an amide substrate (10-mer inhibition assay), biochemical system). Details: 10-mer substrate, 23° C., 1 h, excitation 279 nm / emission 355 nm; read-out: IC50 vs Decapeptide WRVYEKC(Dnp)ALK-acid (where Dnp is Dinitrophenyl maleimide) (10-mer).
T1 construct: Purified ERAP1 (37-941)-10His (ERAP1)
Protocol: However, as ERAP1 hydrolyses the N-terminal amide bond and tryptophan is released this internal quenching is lost and the reaction is monitored by the increase in tryptophan fluorescence over the course of the assay. For the purposes of this application this assay is referred to as the “10mer inhibition assay” and compound potencies are calculated and expressed as IC50 as would be familiar to a person skilled in the art.
Biological Assay 1: ERAP1 Mediated Hydrolysis of an Amide Substrate Measured in a Biochemical System
Decapeptide WRVYEKC(Dnp)ALK-acid (where Dnp is Dinitrophenyl maleimide) (10-mer) L-Leucine 7-amido-4-methylcoumarin (L-AMC)
12.5 μL ERAP1 enzyme in 1×AB was combined with 250 nL test compound in DMSO. […] For detection, plates were read at excitation 365 nm and emission 442 nm (L-AMC) or excitation 279 nm and emission 355 nm (10-mer).

T1 sequence (Q9NZ08 37-941): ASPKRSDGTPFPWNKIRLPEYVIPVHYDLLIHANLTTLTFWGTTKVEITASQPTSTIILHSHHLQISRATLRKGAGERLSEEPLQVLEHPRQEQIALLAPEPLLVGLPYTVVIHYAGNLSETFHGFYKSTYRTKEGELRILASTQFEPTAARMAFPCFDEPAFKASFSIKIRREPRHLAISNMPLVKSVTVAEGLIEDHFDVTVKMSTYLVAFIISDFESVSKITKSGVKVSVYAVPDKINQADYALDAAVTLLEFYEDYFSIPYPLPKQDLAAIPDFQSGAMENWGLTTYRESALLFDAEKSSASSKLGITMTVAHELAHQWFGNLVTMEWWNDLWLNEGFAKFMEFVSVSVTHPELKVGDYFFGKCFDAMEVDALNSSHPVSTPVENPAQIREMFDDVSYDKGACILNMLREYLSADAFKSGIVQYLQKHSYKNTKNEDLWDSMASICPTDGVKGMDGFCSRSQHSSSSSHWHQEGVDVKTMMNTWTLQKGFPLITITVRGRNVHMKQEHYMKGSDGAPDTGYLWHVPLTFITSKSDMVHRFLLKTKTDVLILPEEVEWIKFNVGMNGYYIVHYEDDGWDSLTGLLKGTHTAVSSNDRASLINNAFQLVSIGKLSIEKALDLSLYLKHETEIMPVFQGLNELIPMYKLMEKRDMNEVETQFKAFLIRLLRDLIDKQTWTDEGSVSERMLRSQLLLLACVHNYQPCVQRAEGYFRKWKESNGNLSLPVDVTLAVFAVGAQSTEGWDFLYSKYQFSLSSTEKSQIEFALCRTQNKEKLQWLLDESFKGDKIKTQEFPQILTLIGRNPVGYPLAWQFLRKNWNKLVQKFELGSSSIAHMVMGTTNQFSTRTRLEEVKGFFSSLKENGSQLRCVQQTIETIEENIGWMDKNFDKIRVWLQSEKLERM

| SMILES | pIC50 |
| --- | --- |
| COc1ccc(C(=O)O)cc1S(=O)(=O)Nc1cc(C(F)(F)F)ccc1N1C[C@H](O)[C@@H](F)C1 (relative stereo) [Example 190, 3-(N-(2-(trans-3-fluoro-4-hydroxypyrrolidin-1-yl)-5-(trifluoromethyl)phenyl)sulfamoyl)-4-methoxybenzoic acid] | > 5.30 |
| CCc1ccc(C(=O)O)cc1S(=O)(=O)Nc1cc(C(F)(F)F)ccc1N1CCCCC1 [Example 1, 4-Ethyl-3-(N-(2-(piperidin-1-yl)-5-(trifluoromethyl)phenyl)sulfamoyl)benzoic acid] | > 6.30 |
| CC(C)c1ccc(C(=O)O)cc1S(=O)(=O)Nc1cc(C(F)(F)F)ccc1N1CCCCC1 [Example 3, 4-isopropyl-3-(N-(2-(piperidin-1-yl)-5-(trifluoromethyl)phenyl)sulfamoyl)benzoic acid] | > 6.30 |
| O=C(O)c1ccc(OC(F)(F)F)c(S(=O)(=O)Nc2cc(C(F)(F)F)ccc2N2CCCCC2)c1 [Example 4, 3-(N-(2-(piperidin-1-yl)-5-(trifluoromethyl)phenyl)sulfamoyl)-4-(trifluoromethoxy)benzoic acid] | > 6.30 |
| COc1ccc(C(=O)O)cc1S(=O)(=O)Nc1cc(C(F)(F)F)ccc1N1C[C@H](C)C[C@H](C)C1 [Example 6, 3-(N-(2-(cis-3,5-dimethylpiperidin-1-yl)-5-(trifluoromethyl)phenyl)sulfamoyl)-4-methoxybenzoic acid] | > 6.30 |
| COc1ccc(C(=O)O)cc1S(=O)(=O)Nc1cc(C(F)(F)F)ccc1N1CC2CCC(C1)O2 [Example 7, 3-(N-(2-(8-oxa-3-azabicyclo[3.2.1]octan-3-yl)-5-(trifluoromethyl)phenyl)sulfamoyl)-4-methoxybenzoic acid] | > 5.30 |
| COc1ccc(C(=O)O)cc1S(=O)(=O)Nc1cc(C(F)(F)F)ccc1N1C[C@H]2CN(C)C[C@H]2C1 [Example 8, 4-methoxy-3-(N-(2-(cis-5-methylhexahydropyrrolo[3,4-c]pyrrol-2 (1H)-yl)-5-(trifluoromethyl)phenyl)sulfamoyl)benzoic acid] | < 5.30 |
| COc1ccc(C(=O)O)cc1S(=O)(=O)Nc1cc(C(F)(F)F)ccc1N1CCCC(F)(F)C1 [Example 9, 3-(N-(2-(3,3-difluoropiperidin-1-yl)-5-(trifluoromethyl)phenyl)sulfamoyl)-4-methoxybenzoic acid] | > 6.30 |
| COc1ccc(C(=O)O)cc1S(=O)(=O)Nc1cc(C(F)(F)F)ccc1N1C2CCCC1CC2 [Example 10, 3-(N-(2-(8-azabicyclo[3.2.1]octan-8-yl)-5-(trifluoromethyl)phenyl)sulfamoyl)-4-methoxybenzoic acid] | > 6.30 |
| COc1ccc(C(=O)O)cc1S(=O)(=O)Nc1cc(C(F)(F)F)ccc1N1CC2(CCCO2)C1 [Example 11, 3-(N-(2-(5-oxa-2-azaspiro[3.4]octan-2-yl)-5-(trifluoromethyl)phenyl)sulfamoyl)-4-methoxybenzoic acid] | > 5.30 |
| COc1ccc(C(=O)O)cc1S(=O)(=O)Nc1cc(C(F)(F)F)ccc1N1CCC(F)(F)CC1 [Example 12, 3-(N-(2-(4,4-difluoropiperidin-1-yl)-5-(trifluoromethyl)phenyl)sulfamoyl)-4-methoxybenzoic acid] | > 6.30 |
| COc1ccc(C(=O)O)cc1S(=O)(=O)Nc1cc(C(F)(F)F)ccc1N1CC2CCC(C1)C2O (centres unmarked) [Example 13, 3-(N-(2-(8-hydroxy-3-azabicyclo[3.2.1]octan-3-yl)-5-(trifluoromethyl)phenyl)sulfamoyl)-4-methoxybenzoic acid] | > 6.30 |
| COc1ccc(C(=O)O)cc1S(=O)(=O)Nc1cc(C(F)(F)F)ccc1N1CCC(O)C(F)(F)C1 (centres unmarked) [Example 14, 3-(N-(2-(3,3-difluoro-4-hydroxypiperidin-1-yl)-5-(trifluoromethyl)phenyl)sulfamoyl)-4-methoxybenzoic acid] | > 6.30 |
| CCC1(O)CCN(c2ccc(C(F)(F)F)cc2NS(=O)(=O)c2cc(C(=O)O)ccc2OC)CC1 [Example 15, 3-(N-(2-(4-ethyl-4-hydroxypiperidin-1-yl)-5-(trifluoromethyl)phenyl)sulfamoyl)-4-methoxybenzoic acid] | > 6.30 |
| COc1ccc(C(=O)O)cc1S(=O)(=O)Nc1cc(C(F)(F)F)ccc1N1CCC(OC)C(C)(C)C1 (centres unmarked) [Example 16, 4-methoxy-3-(N-(2-(4-methoxy-3,3-dimethylpiperidin-1-yl)-5-(trifluoromethyl)phenyl)sulfamoyl)benzoic acid] | > 6.30 |
| COc1ccc(C(=O)O)cc1S(=O)(=O)Nc1cc(C(F)(F)F)ccc1N1CCC(O)(C(F)(F)F)CC1 [Example 17, 3-(N-(2-(4-hydroxy-4-(trifluoromethyl)piperidin-1-yl)-5-(trifluoromethyl)phenyl)sulfamoyl)-4-methoxybenzoic acid] | < 5.30 |

| SMILES | pIC50 |
| --- | --- |
| COc1ccc(C(=O)O)cc1S(=O)(=O)Nc1cc(C(F)(F)F)ccc1N1CC(C)(O)C1 [Example 18, 3-(N-(2-(3-hydroxy-3-methylazetidin-1-yl)-5-(trifluoromethyl)phenyl)sulfamoyl)-4-methoxybenzoic acid] | > 5.30 |
| COc1ccc(C(=O)O)cc1S(=O)(=O)Nc1cc(C(F)(F)F)ccc1N1CC2(CCO2)C1 [Example 19, 3-(N-(2-(1-oxa-6-azaspiro[3.3]heptan-6-yl)-5-(trifluoromethyl)phenyl)sulfamoyl)-4-methoxybenzoic acid] | > 5.30 |
| COc1ccc(C(=O)O)cc1S(=O)(=O)Nc1cc(C(F)(F)F)ccc1N1CCC(C)(O)C1 (centres unmarked) [Example 20, 3-(N-(2-(3-hydroxy-3-methylpyrrolidin-1-yl)-5-(trifluoromethyl)phenyl)sulfamoyl)-4-methoxybenzoic acid] | > 5.30 |
| COc1ccc(C(=O)O)cc1S(=O)(=O)Nc1cc(C(F)(F)F)ccc1N1CC(O)(C2CC2)C1 [Example 21, 3-(N-(2-(3-cyclopropyl-3-hydroxyazetidin-1-yl)-5-(trifluoromethyl)phenyl)sulfamoyl)-4-methoxybenzoic acid] | < 5.30 |
| COc1ccc(C(=O)O)cc1S(=O)(=O)Nc1cc(C(F)(F)F)ccc1N1CC(C)(OC)C1 [Example 22, 4-methoxy-3-(N-(2-(3-methoxy-3-methylazetidin-1-yl)-5-(trifluoromethyl)phenyl)sulfamoyl)benzoic acid] | < 5.30 |
| COc1ccc(C(=O)O)cc1S(=O)(=O)Nc1cc(C(F)(F)F)ccc1N1[C@@H]2CC[C@H]1C[C@@H](O)C2 [Example 23, 3-(N-(2-(endo-3-hydroxy-8-azabicyclo [3.2.1]octan-8-yl)-5-(trifluoromethyl)phenyl)sulfamoyl)-4-methoxybenzoic acid] | < 5.30 |
| COc1ccc(C(=O)O)cc1S(=O)(=O)Nc1cc(C(F)(F)F)ccc1N1CCC(O)C(C)(C)C1 (centres unmarked) [Example 24, 3-(N-(2-(4-hydroxy-3,3-dimethylpiperidin-1-yl)-5-(trifluoromethyl)phenyl)sulfamoyl)-4-methoxybenzoic acid] | > 6.30 |
| COc1ccc(C(=O)O)cc1S(=O)(=O)Nc1cc(C(F)(F)F)ccc1N1C[C@H]2CCCC[C@H]2C1 [Example 25, 4-methoxy-3-(N-(2-(cis-octahydroisoindol-2-yl)-5-(trifluoromethyl)phenyl)sulfamoyl)benzoic acid] | > 5.30 |
| COc1ccc(C(=O)O)cc1S(=O)(=O)Nc1cc(C(F)(F)F)ccc1N1CC(O)(C(F)(F)F)C1 [Example 26, 3-(N-(2-(3-hydroxy-3-(trifluoromethyl)azetidin-1-yl)-5-(trifluoromethyl)phenyl)sulfamoyl)-4-methoxybenzoic acid] | > 6.30 |
| COc1ccc(C(=O)O)cc1S(=O)(=O)Nc1cc(C(F)(F)F)ccc1N1CC[C@@H](O)[C@@H](F)C1 [Example 27, 3-(N-(2-((3S,4R)-3-fluoro-4-hydroxypiperidin-1-yl)-5-(trifluoromethyl)phenyl)sulfamoyl)-4-methoxybenzoic acid] | > 5.30 |
| COc1ccc(C(=O)O)cc1S(=O)(=O)Nc1cc(C(F)(F)F)ccc1N1CCC(C)(O)CC1 [Example 28, 3-(N-(2-(4-hydroxy-4-methylpiperidin-1-yl)-5-(trifluoromethyl)phenyl)sulfamoyl)-4-methoxybenzoic acid] | > 6.30 |
| COc1ccc(C(=O)O)cc1S(=O)(=O)Nc1cc(C(F)(F)F)ccc1N1CCCC(C)(O)C1 (centres unmarked) [Example 29, 3-(N-(2-(3-hydroxy-3-methylpiperidin-1-yl)-5-(trifluoromethyl)phenyl)sulfamoyl)-4-methoxybenzoic acid] | > 6.30 |
| CCc1ccc(C(=O)O)cc1S(=O)(=O)Nc1cc(C(F)(F)F)ccc1N1C[C@H](C)C[C@H](C)C1 [Example 30] | > 6.30 |
| COc1ccc(C(=O)O)cc1S(=O)(=O)Nc1cc(C(F)(F)F)ccc1N1CCCCC1(C)C [Example 31, 3-(N-(2-(2,2-dimethylpiperidin-1-yl)-5-(trifluoromethyl)phenyl)sulfamoyl)-4-methoxybenzoic acid] | > 6.30 |
| COc1ccc(C(=O)O)cc1S(=O)(=O)Nc1cc(C(F)(F)F)ccc1N1CCCOCC1 [Example 32, 3-(N-(2-(1,4-oxazepan-4-yl)-5-(trifluoromethyl)phenyl)sulfamoyl)-4-methoxybenzoic acid] | > 6.30 |
| COc1ccc(C(=O)O)cc1S(=O)(=O)Nc1cc(C(F)(F)F)ccc1N1CCC2(CC1)OCc1ccccc12 [Example 33, 3-(N-(2-(spiro[isobenzofuran-1,4′-piperidin]-1′-yl)-5-(trifluoromethyl)phenyl)sulfamoyl)-4-methoxybenzoic acid] | > 6.30 |
